Measured values taken from US20240173419A1, “CDK2 DEGRADERS AND USES THEREOF” (Kymera Therapeutics, Inc., priority 2022, published 2024).

Biological target: T1, CDK2 (Homo sapiens, UniProt P24941)
T1 construct: endogenous in cells; host or cells: MKN1 cells
Experiment: CDK2 degradation in MKN1 cells (AlphaLISA)
Format: cell-based
Details: 14 h incubation; for DC50: read-out: CDK2 degradation 14 h: Mean external-Abs DC50
Summary of the method: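 MKN1 cells (2e4/well) treated 14 h at 37° C with 11-point 1:5 dilutions (0.001 nM-10 μM, 0.1% DMSO). CDK2 in lysates quantified by AlphaLISA, no-cell background subtracted; DC50 from four-parameter logistic fit.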

Row | Compound | CDK2 degradation 14 h: Average Dmax % | DC50
1 | Cc1cc(S(=O)(=O)NC2CCC(CN3CCN(c4ccc(C(=O)NC5CCC(=O)NC5=O)cc4C)CC3)CC2)ccc1Nc1ncc(C(F)(F)F)c(N2CCCC(C)(O)C2)n1 (stereo not shown) [I-1126] | A (A (>75% o)) | 100 to 500 nM
2 | Cc1cc(S(=O)(=O)NC2CCC(CN3CCC(c4ccc(C5CCC(=O)NC5=O)c(F)c4)CC3)CC2)ccc1Nc1ncc(C(F)(F)F)c(N2CCCC(C)(O)C2)n1 (stereo not shown) [I-1131] | A (A (>75% o)) | < 100 nM
3 | Cc1cc(S(=O)(=O)NC2CCC(CN3CCN(c4ccc(C5CCC(=O)NC5=O)cc4F)C(C)C3)CC2)ccc1Nc1ncc(C(F)(F)F)c(N2CCCC(C)(O)C2)n1 (stereo not shown) [I-1137] | A (A (>75% o)) | < 100 nM
4 | Cc1cc(S(=O)(=O)NC2CCC(CN3CCN(c4ccc(C5CCC(=O)NC5=O)c(C(F)(F)F)c4)CC3)CC2)ccc1Nc1ncc(C(F)(F)F)c(N2CCCC(C)(O)C2)n1 (stereo not shown) [I-1138] | B (B (>50% -75%)) | > 1000 nM
5 | Cc1cc(S(=O)(=O)NC2CCN(CC3CCN(c4ccc(C5CCC(=O)NC5=O)cc4F)CC3)CC2F)ccc1Nc1ncc(C(F)(F)F)c(N2CCCC(C)(O)C2)n1 (stereo not shown) [I-1140] | A (A (>75% o)) | < 100 nM
6 | Cc1cc(S(=O)(=O)NC2CCN(CC3CCN(c4ccc(C5CCC(=O)NC5=O)cc4F)CC3)CC2F)ccc1Nc1ncc(C(F)(F)F)c(N2CCCC(C)(O)C2)n1 (stereo not shown) [I-1141] | A (A (>75% o)) | < 100 nM
7 | Cc1cc(S(=O)(=O)NC2CCC(CN3CCN(c4ncc(C5CCC(=O)NC5=O)cc4F)CC3)CC2)ccc1Nc1ncc(C(F)(F)F)c(N2CCCC(C)(O)C2)n1 (stereo not shown) [I-1142] | A (A (>75% o)) | < 100 nM
8 | Cc1cc(S(=O)(=O)NC2CCC(CN3CCN(c4cccc(NC5CCC(=O)NC5=O)c4F)CC3)CC2)ccc1Nc1ncc(C(F)(F)F)c(N2CCCC(C)(O)C2)n1 (stereo not shown) [I-1143] | A (A (>75% o)) | < 100 nM
9 | Cc1cc(S(=O)(=O)NC2CCC(CN3CCN(c4cc(F)cc(NC5CCC(=O)NC5=O)c4)CC3)CC2)ccc1Nc1ncc(C(F)(F)F)c(N2CCCC(C)(O)C2)n1 (stereo not shown) [I-1144] | A (A (>75% o)) | 100 to 500 nM
10 | Cc1cc(S(=O)(=O)NC2CCC(CN3CCN(c4cccc5c4n(C)c(=O)n5C4CCC(=O)NC4=O)CC3)CC2)ccc1Nc1ncc(C(F)(F)F)c(N2CCCC(C)(O)C2)n1 (stereo not shown) [I-1145] | A (A (>75% o)) | < 100 nM
11 | Cc1cc(S(=O)(=O)NC2CCC(CN3CCN(c4c(C)cc(C5CCC(=O)NC5=O)cc4F)CC3)CC2)ccc1Nc1ncc(C(F)(F)F)c(N2CCCC(C)(O)C2)n1 (stereo not shown) [I-1146] | A (A (>75% o)) | < 100 nM
12 | Cc1cc(S(=O)(=O)N2CCC(CN(C)C3CCN(c4cccc5c4n(C)c(=O)n5C4CCC(=O)NC4=O)CC3)CC2)ccc1Nc1nccc(-c2cnc(C)n2C(C)C)n1 (stereo not shown) [I-1152] | A (A (>75% o)) | < 100 nM
13 | Cc1cc(S(=O)(=O)N2CCC(CN(C)C3CCN(c4cccc5c4n(C)c(=O)n5C4CCC(=O)NC4=O)CC3)CC2)ccc1Nc1ncc(C(F)(F)F)c(C2CCCCC2)n1 (stereo not shown) [I-1153] | A (A (>75% o)) | 100 to 500 nM
14 | Cc1cc(S(=O)(=O)N2CCC(CN(C)C3CCN(c4cccc5c4n(C)c(=O)n5C4CCC(=O)NC4=O)CC3)CC2)ccc1Nc1ncc(C(F)(F)F)c(-c2cnn(C)c2)n1 (stereo not shown) [I-1155] | A (A (>75% o)) | < 100 nM
